{
  "source": "patent US9616006B2",
  "about": "“Methods and compositions for treating dermatological diseases and conditions” (priority 2007, dated 2017)",
  "key": {"[1]": {"tested_on": "IL-8", "assay": "TPA-induced IL-8 production in keratinocytes (ELISA)", "format": "cell-based, human", "settings": "Homo sapiens, Keratinocyte, read-out: Percent Inhibition of IL-8"}, "[2]": {"tested_on": "TNF-α", "assay": "TPA-induced TNF-α production in keratinocytes (ELISA)", "format": "cell-based, human", "settings": "Homo sapiens, Keratinocyte; Keratinocytes (TPA); 100 uM; read-out: Percent Inhibition of TNF-α", "procedure": "(§1) In one study, various concentrations of DHE were added to culture medium and these media were placed on human fibroblast cell cultures (results shown in FIG. 1). Cells were either not induced or induced with UVB radiation to stimulate cytokine/PGE-2 production. At 24 hours after treatment, the cell culture medium was removed and assayed by ELISA methods for the expression of PGE-2, various cytokines and chemokines.\n(§2) When similar experiments were carried out with human keratinocytes, DHE was again found to markedly suppress the UVR induction of PGE-2, with a concentration of 50 uM inhibiting the production of PGE-2 by over 60% (results shown in FIG. 2). […] Further, since PGE-2 is known to be a principal factor in the development of actinic keratosis and skin cancer, DHE can also be used in treating these conditions.\nInflammatory mediators produced in the skin contribute to the development and propagation of such diseases as rosacea, psoriasis and atopic dermatitis. While many inflammatory mediators are involved in these diseases, TNF-α is known to be a major cytokine involved in psoriasis. For atopic dermatitis, TNF-α, IL-8, and MCP-1 are important mediators of inflammation in these diseases. DHE is effective in suppressing the TPA-induced (TPA is tetradecanolyl phorbol ester) production of TNF-α by approximately 50% at a 100 micromolar concentration (results shown in FIG. 3).\n(§3) DHE and IE both have inhibitory effects on production of the inflammatory mediators in keratinocytes."}, "[3]": {"tested_on": "PGE2", "assay": "UV-induced PGE2 production in keratinocytes (ELISA)", "format": "cell-based, human", "settings": "Homo sapiens, Keratinocyte; Keratinocytes (UV); 100 uM; read-out: Percent Inhibition of PGE2", "procedure": "as §1, §2, §3"}, "[4]": {"tested_on": "PGE-2", "assay": "IL-1-induced PGE-2 production in fibroblasts (ELISA)", "format": "cell-based, human", "settings": "Homo sapiens, Fibroblast, Fibroblasts (IL-1), read-out: Percent Inhibition of PGE-2", "procedure": "as §1, with “Cells were either not induced or induced with UVB radiation to stimulate cytokine/PGE-2 production.” left out\n(§4) DHE and IE both have inhibitory effects on the production of the inflammatory mediators in fibroblasts."}, "[5]": {"tested_on": "IL-6", "assay": "IL-1-induced IL-6 production in fibroblasts (ELISA)", "format": "cell-based, human", "settings": "Homo sapiens, Fibroblast, Fibroblasts (IL-1), read-out: Percent Inhibition of IL-6", "procedure": "as §1, with “Cells were either not induced or induced with UVB radiation to stimulate cytokine/PGE-2 production.” left out\nas §4"}, "[6]": {"tested_on": "IL-8", "assay": "IL-1-induced IL-8 production in fibroblasts (ELISA)", "format": "cell-based, human", "settings": "Homo sapiens, Fibroblast, Fibroblasts (IL-1), read-out: Percent Inhibition of IL-8"}, "[7]": {"tested_on": "PGE-2", "assay": "UV-induced PGE-2 production in fibroblasts (ELISA)", "format": "cell-based, human", "settings": "Homo sapiens, Fibroblast; Fibroblasts (UV); 100 uM; read-out: Percent Inhibition of PGE-2", "procedure": "as §1\nAs is shown in FIG. 1, UV radiation (UVR) treatment of fibroblasts results in a 6 fold increase in PGE-2.\nas §4"}, "[8]": {"tested_on": "IL-8", "assay": "UV-induced IL-8 production in fibroblasts (ELISA)", "format": "cell-based, human", "settings": "Homo sapiens, Fibroblast, read-out: Percent Inhibition of IL-8", "procedure": "as §1, §4"}, "[9]": {"tested_on": "MCP-1", "assay": "LPS-induced MCP-1 production in monocytes", "format": "cell-based", "settings": "Monocyte; Monocytes (LPS); 100 uM; read-out: Percent Inhibition of MCP-1", "excerpt": "(§5) DHE and IE both have inhibitory effects on the production of the inflammatory mediators in monocytes."}, "[10]": {"tested_on": "TNF-α", "assay": "LPS-induced TNF-α production in monocytes", "format": "cell-based", "settings": "Monocyte; Monocytes (LPS); 100 uM; read-out: Percent Inhibition of TNF-α", "excerpt": "as §5"}, "[11]": {"tested_on": "IL-8", "assay": "TNF-α-induced IL-8 production in monocytes", "format": "cell-based", "settings": "Monocyte, read-out: Percent Inhibition of IL-8", "excerpt": "as §5"}, "[12]": {"tested_on": "IL-12", "assay": "TNF-α-induced IL-12 production in monocytes", "format": "cell-based", "settings": "Monocyte, read-out: Percent Inhibition of IL-12", "excerpt": "as §5"}, "[13]": {"tested_on": "TIMP-1", "assay": "TIMP-1 mRNA in fibroblasts by PCR", "format": "cell-based, human", "excerpt": "The presently claimed and disclosed inventive concept(s) further contemplates use of various DHE, IE and EV compositions and salts, esters, ethers, and derivatives thereof to mitigate the effects of aging on the skin. For all aging studies, normal human fibroblast cell cultures were used. These cells normally produce collagen, elastin and hyaluronic acid. As the skin ages, the fibroblasts in the dermis lose their ability to produce these three key components of skin, and the skin consequently loses elasticity, thickness and smooth texture. In addition, as fibroblasts age, they increase the expression of certain enzymes that destroy collagen and elastin. There are about 13 of these enzymes, collectively referred to as MMPs (matrix metalloproteinases). One of the principal MMPs, MMP-1, is responsible for collagen degradation. For experiments herein to determine the effects of DHE, IE and EV on collagen, elastin and hyaluronic acid, fibroblasts were treated with the compounds for 72 hours, mRNA was then isolated, and analyzed for abundance by RT-PCR (Reverse transcriptase-Polymerase Chain Reaction).\nFibroblasts in the skin not only produce enzymes (MMPs) that destroy the skin matrix but they also produce proteins (Tissue Inhibitors of Metalloproteinases, i.e., TIMPS) that inhibit these enzymes. There are several TIMPs, but one that is most important for inhibiting MMPs is TIMP-1. […] Shown in FIG. 11 is PCR data showing the up-regulation of TIMP-1 mRNA by these compounds."}, "[14]": {"tested_on": "tyrosinase", "assay": "DOPA oxidase assay of cell extracts from treated human melanocytes", "format": "cell-based", "settings": "extracts of human melanocytes treated for 9 days", "procedure": "Cell lysates were prepared from human melanocytes. The amount of tyrosinase in these cell lysates was determined by DOPA oxidase assay.\nFIGS. 14-17 show the skin-lightening effects of topically-applied formulations of isoeugenol and its ester isoeugenol acetate (a.k.a. isoeugenyl acetate) in the treatment of hyperpigmented areas in the skin, wherein a reduction of melanin pigment in the skin is caused by the topical application of the formulations. In addition to blocking a post-tyrosinase step in melanin synthesis, IE and IE acetate can inhibit the expression of the tyrosinase protein in human melanocytes. […] If the cell extracts contain tyrosinase when an aliquot of extract is placed in a tube containing L-DOPA (a tyrosinase substrate) in buffer, the enzyme will convert the DOPA to melanin. The melanin will appear brownish-black in the assay tube. If IE or IE-acetate has inhibited tyrosinase synthesis in melanocytes, then the extracts from these cells will contain no enzyme and will not be able to produce melanin from DOPA in the assay tube. […] In this assay, cell extracts from human melanocytes either left untreated or treated with 200 micromolar of either IE or isoeugenol acetate for 9 days are run on SDS polyacrylamide electrophoresis gels to separate tyrosinase from other proteins. The tyrosinase in the gel is then blotted to a membrane and the tyrosinase detected by staining with a specific anti-tyrosinase antibody. The antibody-bound tyrosinase is then visualized by chemiluminescence."}},
  "data": [
    {"molecule": "CC=Cc1ccc(O)c(OC)c1", "note": "[IE, isoeugenol]", "values": [
      {"measurement": "inhibition at 100 µM", "setting": "[1]", "result": 75, "unit": "%"},
      {"measurement": "inhibition at 100 µM", "setting": "[2]", "result": 71, "unit": "%"},
      {"measurement": "inhibition at 100 µM", "setting": "[3]", "result": 76, "unit": "%"},
      {"measurement": "inhibition at 100 µM", "setting": "[4]", "result": 81, "unit": "%"},
      {"measurement": "inhibition at 100 µM", "setting": "[5]", "result": 53, "unit": "%"},
      {"measurement": "inhibition at 100 µM", "setting": "[6]", "result": 98, "unit": "%"},
      {"measurement": "inhibition at 100 µM", "setting": "[7]", "result": 77, "unit": "%"},
      {"measurement": "inhibition at 100 µM", "setting": "[8]", "result": 2, "unit": "%"},
      {"measurement": "inhibition at 100 µM", "setting": "[9]", "result": 87, "unit": "%"},
      {"measurement": "inhibition at 100 µM", "setting": "[10]", "result": 80, "unit": "%"},
      {"measurement": "inhibition at 100 µM", "setting": "[11]", "result": 78, "unit": "%"},
      {"measurement": "inhibition at 100 µM", "setting": "[12]", "result": 100, "unit": "%"},
      {"measurement": "production of TIMP-1 (TIMP-1 mRNA)", "setting": "[13]", "result": "significantly stimulate"},
      {"measurement": "tyrosinase activity / melanin made from L-DOPA by cell extracts", "setting": "[14]", "result": "very little melanin was made"},
      {"measurement": "tyrosinase activity / melanin made from L-DOPA by cell extracts", "setting": "[14]; listed as TH-212", "result": "absence of tyrosinase activity"}
    ]}
  ]
}
